In patent US20160033528A1, “Methods for Selecting Peptides that Bind to Disease Specific Antibodies, Disease Specific Peptides and Uses Thereof” (The Regents of the University of California, priority 2014, published 2016):

Key:
[1] = system: CD patient IgG antibodies; test: Individual clone reactivity with individual patient sera by flow cytometry (second-generation PEQ peptides); type: binding, human; settings: CD case sera n=18 not used for screening
Method: Depletion of E. coli binding serum antibodies. Diluted sera were depleted of E. coli binding antibodies prior to library screening and clone reactivity assays. To remove E. coli binding antibodies, an overnight culture of cells expressing the library scaffold (eCPX) with or without the v114 peptide were diluted (1:50) in fresh media and grown separately until the optical density at 600 nm (OD600) was ˜0.6. Cells were induced for 1 hr at 37° C., and then 2×10^9 cells from each culture were combined and centrifuged at 3000 ref for 5 min. Cells were resuspended in PBS-T (1 mL) containing 100× diluted pooled or individual sera. Samples were incubated overnight at 4° C. on an orbital shaker at 20 rpm. After incubation, samples were centrifuged at 3000 ref for 5 min (2×), and the depleted serum supernatant was recovered and stored at 4° C. for up to three days before use.
For flow cytometric analysis and sorting, induced cells corresponding to 5× the estimated remaining clonal diversity were incubated with 1:100-1:200 dilution of pooled sera for 45 min at 4° C. followed by centrifugation and removal of unbound supernatant (3× washing). The pellet was then resuspended in the respective 1:500 biotinylated goat anti-human secondary antibody (IgA/IgG/IgM) in 1× PBST at 4° C. for 45 min followed by centrifugation and removal of unbound supernatant (2× washing). For tertiary labeling, the pellet resuspended in 15 nM SA-PE in 1× PBST at 4° C. for 45 min, followed by another wash via centrifugation and resuspension (3× washing) in ice-cold PBST at a volume between 10^7 and 10^8 cells/mL. Resuspended cells were analyzed using a FACSAria cell sorter (Becton Dickinson) using 488-nm excitation. After sorting, retained cells were amplified for further rounds of sorting by overnight growth and plated to isolate single clones. […]
In vitro evolution of CD specific peptides. […] To assess the diagnostic sensitivity and specificity of individual peptides, the reactivities of one representative clone from each motif group was measured using CD case (n=18) and non-CD control sera (n=5) not used for screening. […]

anti-CSE antibodies = test: CSE reactivity in matched CD sera at diagnosis and after one year of gluten-free diet; type: binding, human; settings: 11 CD cases
Description: Active CD patients (n=54) ranging in age from 18-74 had small intestinal biopsies with a Marsh 3a-3c histological lesion, tested seropositive for transglutaminase (TG2) and endomysium (EMA) autoantibodies, and were Caucasian. Human lymphocyte antigens (HLA)-typing for the presence of DQ2 or DQ8 alleles was available for 42/54 CD sera.
Directed evolution pooled clone & individual patient single clone reactivity assays. To compare the reactivity of consensus epitopes from each generation, overnight cultures of individual clones within a consensus epitope family (4-5 clones/family) were diluted (1:50) in fresh media and grown until the OD600 was between 0.5 and 0.7. Cultures of each individual Clones were induced for 45 min, and 10^6 cells from each culture were pooled together. Pooled consensus epitope families were assayed for binding to case and control group sera (3 subjects/group) by flow cytometry. […] Cells expressing the eCPX scaffold without a peptide insert were used as a negative (background) control. […]
To determine prevalence of anti-CSE antibodies in CD and control subjects, CD and non-CD sera (n=231) were assessed for reactivity to the CSE peptide: MDVRCRDSFVYQCHVGT (SEQ ID NO: 2). […]

[2] = system: serum IgA of patients with CD; settings: cited from earlier work

Sequence | CD sera the peptide reacted with (reactive/tested) [1] | other results
GQGQAFPEQGSVPIN [A/VFPEQ motif peptide, focused library 1] | 14/18 | 
MDVRCRDSFVYQCHVGT [CSE peptide] |  | patients with reduced, but non-zero, levels of epitope reactivity after a GFD (anti-CSE antibodies; after one year on a gluten-free diet): 8/11; active CD patients reactive (anti-CSE antibodies; sera at time-of-diagnosis): 10/11
VAWTMGPEQPLVRAL [PEQPL motif peptide, focused library 1] | 11/18 | 
VVKGGSSSLGW [celiac peptide, synthetic peptide of Giovanna et al., PLOS Med. 2006] |  | individual patients with CD whose serum IgA specifically recognized the peptide [2]: 68%
VWDRGVPEQMFPRKG [PEQxFP motif derived peptide, focused library 1] | 18/18 | 
